Measured values published in PubChem BioAssay (NCI).
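Results reflect a 48-hour exposure of cells in 96-well plates to compound at five concentrations. Definition used: TGI = concentration required for complete inhibition of growth.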

How the values were obtained:
Test in all cases: growth of human tumour cells (NCI), 48 h
[1] = tested on: SF-268 CNS
[2] = tested on: MCF7 breast
[3] = tested on: LOX IMVI melanoma
[4] = tested on: RPMI-8226 leukemia
[5] = tested on: KM12 colon
[6] = tested on: HL-60(TB) leukemia
[7] = tested on: SK-OV-3 ovarian
[8] = tested on: NCI-H23 lung
[9] = tested on: U251 CNS
[10] = tested on: MALME-3M melanoma
[11] = tested on: EKVX NSCLC
[12] = tested on: SF-539 CNS
[13] = tested on: OVCAR-8 ovarian
[14] = tested on: MDA-N
[15] = tested on: TK-10 renal
[16] = tested on: SR leukemia
[17] = tested on: NCI-H460 lung
[18] = tested on: SK-MEL-2 melanoma
[19] = tested on: UO-31 renal
[20] = tested on: ACHN renal
[21] = tested on: IGROV1 ovarian
[22] = tested on: SW-620 colon
[23] = tested on: HS 578T breast
[24] = tested on: DU-145 prostate
[25] = tested on: SF-295 CNS
[26] = tested on: NCI-H226 lung
[27] = tested on: NCI-H522 lung
[28] = tested on: MOLT-4 leukemia
[29] = tested on: K-562 leukemia
[30] = tested on: UACC-257 melanoma
[31] = tested on: NCI/ADR-RES ovarian
[32] = tested on: SN12C renal
[33] = tested on: HCT-116 colon
[34] = tested on: MDA-MB-231 breast
[35] = tested on: UACC-62 melanoma
[36] = tested on: CCRF-CEM leukemia
[37] = tested on: RXF 393 renal
[38] = tested on: SNB-19 CNS
[39] = tested on: A549 NSCLC
[40] = tested on: T-47D breast
[41] = tested on: MDA-MB-435
[42] = tested on: OVCAR-5 ovarian
[43] = tested on: HOP-62 NSCLC
[44] = tested on: 786-0 renal
[45] = tested on: SK-MEL-5 melanoma
[46] = tested on: OVCAR-3 ovarian
[47] = tested on: PC-3 prostate
[48] = tested on: M14 melanoma
[49] = tested on: HCT-15 colon
[50] = tested on: OVCAR-4 ovarian
[51] = tested on: CAKI-1 renal
[52] = tested on: BT-549 breast
[53] = tested on: HOP-92 NSCLC
[54] = tested on: COLO 205 colon
[55] = tested on: HT29 colon
[56] = tested on: HCC-2998 colon
[57] = tested on: SNB-75 CNS
[58] = tested on: A498 renal
[59] = tested on: SK-MEL-28 melanoma

**Q.** What does the source list for `N#Cc1c(-c2cccc(Cl)c2)cc(-c2ccc(Cl)cc2)nc1N`?
**A.** TGI [1]: 37.7 µM; TGI [2]: 38.3 µM; TGI [3]: 31.5 µM; TGI [4]: 48 µM; TGI [5]: 80.7 µM; TGI [6]: 77.2 µM; TGI [7]: 46.7 µM; TGI [8]: 38.2 µM; TGI [9]: 30.9 µM; TGI [10]: 58.4 µM; TGI [11]: 45 µM; TGI [12]: 34.3 µM; TGI [13]: 70.7 µM; TGI [14]: 42.3 µM; TGI [15]: 52.2 µM; TGI [16]: 40 µM; TGI [17]: 39.2 µM; TGI [18]: 36.7 µM; TGI [19]: 27.5 µM; TGI [20]: 41.6 µM; TGI [21]: 24.4 µM; TGI [22]: 34.2 µM; TGI [23]: 40.5 µM; TGI [24]: > 100 µM; TGI [25]: 32.5 µM; TGI [26]: 34.8 µM; TGI [27]: 30.8 µM; TGI [28]: 58.6 µM; TGI [29]: > 100 µM; TGI [30]: 36.1 µM; TGI [31]: 63.5 µM; TGI [32]: 34.4 µM; TGI [33]: 34.1 µM; TGI [34]: 32 µM; TGI [35]: 32.7 µM; TGI [36]: 48.4 µM; TGI [37]: 32.3 µM; TGI [38]: 25.5 µM; TGI [39]: 36.1 µM; TGI [40]: > 100 µM; TGI [41]: 37.6 µM; TGI [42]: 42.9 µM; TGI [43]: 36.3 µM; TGI [44]: 33.5 µM; TGI [45]: 30.1 µM; TGI [46]: 63.9 µM; TGI [47]: 49.2 µM; TGI [48]: 36.9 µM; TGI [49]: 32.9 µM; TGI [50]: 33.1 µM; TGI [51]: 86 µM; TGI [52]: 36.4 µM; TGI [53]: 25.3 µM; TGI [54]: 28.6 µM; TGI [55]: 44 µM

**Q.** Which TGI [1] does the source give for `CN(C)C(=S)N/N=C(\C(=N/NC(=S)N(C)C)c1ccccn1)c1ccccn1` here?
**A.** 23.7 µM

**Q.** And the TGI [2]?
**A.** > 48.7 µM

**Q.** And the TGI [3]?
**A.** > 100 µM

**Q.** And the TGI [4]?
**A.** > 100 µM

**Q.** And the TGI [5]?
**A.** 33.6 µM

**Q.** What about the TGI [7] of the same molecule?
**A.** 30.4 µM

**Q.** And the TGI [8]?
**A.** > 53.2 µM

**Q.** And the TGI [9]?
**A.** 20.4 µM

**Q.** And the TGI [10]?
**A.** 33.9 µM

**Q.** What about the TGI [11] of the same molecule?
**A.** 36.7 µM

**Q.** And the TGI [12]?
**A.** > 100 µM

**Q.** And the TGI [56]?
**A.** 37.5 µM

**Q.** What about the TGI [13] of the same molecule?
**A.** 77.7 µM

**Q.** What about the TGI [14] of the same molecule?
**A.** > 54 µM

**Q.** What about the TGI [15] of the same molecule?
**A.** 22.2 µM

**Q.** And the TGI [17]?
**A.** 22.7 µM

**Q.** And the TGI [18]?
**A.** 36.7 µM

**Q.** And the TGI [19]?
**A.** 21.6 µM

**Q.** And the TGI [20]?
**A.** 20.1 µM

**Q.** What about the TGI [21] of the same molecule?
**A.** 27.1 µM

**Q.** What about the TGI [22] of the same molecule?
**A.** 29.9 µM

**Q.** And the TGI [23]?
**A.** > 46 µM

**Q.** What about the TGI [24] of the same molecule?
**A.** 10.8 µM

**Q.** What about the TGI [25] of the same molecule?
**A.** 29.6 µM

**Q.** And the TGI [26]?
**A.** 28.2 µM

**Q.** And the TGI [27]?
**A.** 9.26 µM

**Q.** What about the TGI [29] of the same molecule?
**A.** > 100 µM

**Q.** What about the TGI [57] of the same molecule?
**A.** 27.4 µM

**Q.** And the TGI [30]?
**A.** 50 µM

**Q.** And the TGI [31]?
**A.** 62.1 µM

**Q.** And the TGI [32]?
**A.** 20.3 µM

**Q.** And the TGI [58]?
**A.** 30.2 µM

**Q.** And the TGI [33]?
**A.** 25.1 µM

**Q.** And the TGI [34]?
**A.** 43.1 µM

**Q.** And the TGI [35]?
**A.** 32.8 µM

**Q.** And the TGI [37]?
**A.** 18.1 µM

**Q.** What about the TGI [38] of the same molecule?
**A.** 31.8 µM

**Q.** What about the TGI [39] of the same molecule?
**A.** 27.3 µM

**Q.** What about the TGI [40] of the same molecule?
**A.** 8.79 µM

**Q.** And the TGI [41]?
**A.** 26 µM

**Q.** What about the TGI [42] of the same molecule?
**A.** 55.1 µM

**Q.** And the TGI [43]?
**A.** 38.7 µM

**Q.** What about the TGI [44] of the same molecule?
**A.** 27 µM

**Q.** What about the TGI [45] of the same molecule?
**A.** 24.5 µM

**Q.** What about the TGI [46] of the same molecule?
**A.** 14.6 µM

**Q.** And the TGI [47]?
**A.** 24.4 µM

**Q.** And the TGI [48]?
**A.** 42.3 µM

**Q.** And the TGI [49]?
**A.** 31.6 µM

**Q.** And the TGI [50]?
**A.** 26.8 µM

**Q.** And the TGI [51]?
**A.** 34.1 µM

**Q.** And the TGI [59]?
**A.** 34.4 µM

**Q.** And the TGI [52]?
**A.** 35.5 µM

**Q.** And the TGI [53]?
**A.** 22.1 µM

**Q.** And the TGI [54]?
**A.** 24.2 µM

**Q.** And the TGI [55]?
**A.** 17.6 µM

**Q.** Which results are given for `CCOC(=O)c1c[nH]cc1-c1cn(S(=O)(=O)c2ccccc2)cc1C`?
**A.** TGI [1]: 78.6 µM; TGI [2]: 61 µM; TGI [3]: 71.9 µM; TGI [5]: 49 µM; TGI [6]: > 100 µM; TGI [7]: > 100 µM; TGI [8]: 69.8 µM; TGI [9]: 85.4 µM; TGI [10]: 40.4 µM; TGI [11]: 71.3 µM; TGI [12]: 53.5 µM; TGI [56]: 41 µM; TGI [13]: > 100 µM; TGI [14]: 48.4 µM; TGI [15]: > 100 µM; TGI [17]: 47.3 µM; TGI [18]: > 100 µM; TGI [19]: > 100 µM; TGI [20]: 64.3 µM; TGI [21]: 77.7 µM; TGI [22]: > 10 µM; TGI [23]: 46.2 µM; TGI [24]: > 100 µM; TGI [25]: > 100 µM; TGI [27]: 46.4 µM; TGI [28]: > 100 µM; TGI [29]: 86.4 µM; TGI [57]: 63.1 µM; TGI [30]: 37.6 µM; TGI [31]: > 100 µM; TGI [32]: 59.6 µM; TGI [58]: > 10 µM; TGI [33]: 58.9 µM; TGI [34]: > 100 µM; TGI [35]: 33.6 µM; TGI [36]: > 100 µM; TGI [37]: > 100 µM; TGI [38]: > 100 µM; TGI [39]: > 100 µM; TGI [40]: > 100 µM; TGI [41]: > 10 µM; TGI [42]: > 100 µM; TGI [43]: > 100 µM; TGI [44]: > 100 µM; TGI [45]: > 10 µM; TGI [46]: 61.8 µM; TGI [47]: 56.3 µM; TGI [48]: 44.3 µM; TGI [49]: 76.4 µM; TGI [50]: > 100 µM; TGI [51]: 48.4 µM; TGI [59]: 38.4 µM; TGI [52]: 74.8 µM; TGI [53]: > 100 µM; TGI [54]: 42.4 µM; TGI [55]: 52.8 µM

**Q.** What does the source list for `CC[C@@H]1CC[C@@H]2[C@H](CC[C@]3(C)[C@@H](O)CC[C@@H]23)[C@H]1CO`?
**A.** TGI [1]: > 100 µM; TGI [2]: > 100 µM; TGI [3]: > 100 µM; TGI [4]: > 100 µM; TGI [5]: > 100 µM; TGI [6]: 85.8 µM; TGI [7]: > 100 µM; TGI [8]: > 100 µM; TGI [9]: > 100 µM; TGI [10]: > 100 µM; TGI [11]: > 100 µM; TGI [12]: > 100 µM; TGI [56]: > 100 µM; TGI [13]: > 100 µM; TGI [14]: > 100 µM; TGI [15]: > 100 µM; TGI [17]: > 100 µM; TGI [18]: > 100 µM; TGI [19]: > 100 µM; TGI [20]: > 100 µM; TGI [21]: > 100 µM; TGI [22]: > 100 µM; TGI [23]: > 100 µM; TGI [24]: > 100 µM; TGI [25]: > 100 µM; TGI [26]: > 100 µM; TGI [27]: > 100 µM; TGI [28]: > 100 µM; TGI [29]: > 100 µM; TGI [57]: > 100 µM; TGI [30]: > 100 µM; TGI [31]: > 100 µM; TGI [32]: > 100 µM; TGI [58]: > 100 µM; TGI [33]: > 100 µM; TGI [34]: > 100 µM; TGI [35]: > 100 µM; TGI [36]: > 100 µM; TGI [37]: > 100 µM; TGI [38]: > 100 µM; TGI [39]: > 100 µM; TGI [40]: > 100 µM; TGI [41]: > 100 µM; TGI [42]: > 100 µM; TGI [43]: > 100 µM; TGI [44]: > 100 µM; TGI [45]: > 100 µM; TGI [46]: > 100 µM; TGI [47]: > 100 µM; TGI [48]: > 100 µM; TGI [49]: > 100 µM; TGI [50]: > 100 µM; TGI [51]: > 100 µM; TGI [59]: > 100 µM; TGI [52]: > 100 µM; TGI [53]: > 100 µM; TGI [54]: > 100 µM; TGI [55]: > 100 µM
